A short description of data set [1]: Oral bioavailability in Sprague-Dawley rat at 100 mg/kg administered via gavage by LC/MS analysis. It is filed as ADME, organism-based. To be noted: in vivo.
Data set [2] is described as follows: Volume of distribution at steady state in Sprague-Dawley rat plasma at 100 mg/kg, po administered via gavage or iv administered as 10 mins infusion by LC/MS analysis. It is filed as ADME, organism-based. To be noted: read-out: Vdss.
Data set [3] in a line: Solubility in 0.1 N HCl buffer at pH 1 after 4 hrs by HPLC analysis. It is filed as physicochemical.
Data set [4] is described as follows: Aqueous solubility after 4 hrs by HPLC analysis. To be noted: water. It is filed as physicochemical.
The nature of data set [5]: Solubility in pH 6.5 FaSSIF after 4 hrs by HPLC analysis. It is filed as physicochemical.
Data set [6] is described as follows: Solubility in pH 5 FeSSIF after 4 hrs by HPLC analysis. It is filed as physicochemical.
A short description of data set [7]: Solubility in pH 2 citric acid monophosphate buffer after 4 hrs by HPLC analysis. It is filed as physicochemical.
Data set [8] is described as follows: Solubility in 0.01 N HCl buffer at pH 2 after 4 hrs by HPLC analysis. It is filed as physicochemical.
For data set [9], the system named is Plasmodium falciparum. Kind of data set: Antimalarial activity against Plasmodium falciparum 3D7 infected in human erythrocytes after 48 hrs by SYBR Green I dye-based fluorescence assay. It is filed as functional, organism-based. To be noted: 3D7, 48 h.
A short description of data set [10]: Half life in rat blood by LC-MS method. It is filed as ADME, tissue-based.
In data set [11] the test system is Plasmodium berghei. Kind of data set: Antimalarial activity against Plasmodium berghei infected in mouse assessed as mouse mean survival days at 30 mg/kg, po administered as single dose. It is filed as functional.
Data set [12] relates to Plasmodium berghei. Kind of data set: Antimalarial activity against Plasmodium berghei infected in mouse assessed as reduction in parasitemia at 30 mg/kg, po administered as single dose measured on day 3 relative to control. The arrangement: scale not given: the % may be the effect or the level left. It is filed as functional.
For data set [13], the system named is Plasmodium falciparum. Kind of data set: Antimalarial activity against Plasmodium falciparum Pf3D70087/N9 infected in po dosed humanized NOD.Cg-Prkdcscid Il2rgtm1Wjl/SzJ mouse assessed as reduction in parasitemia administered as single dose measured on day 7 post infection by SYTO-16 dye-based flow cytometric analysis. It is filed as functional. To be noted: 168 h. (In general: A flow cytometer gives signals particle by particle.)

Data set [14] is described as follows: Half life in Sprague-Dawley rat at 10 mg/kg, po. It is filed as ADME, organism-based. To be noted: in vivo.
Data set [15] can be described thus: Drug level in rat liver microsomes treated with N205 at 5 uM after 60 mins by UPLC-MS analysis. It is filed as ADME, microsome. To be noted: 1 h.
Data set [16] can be described thus: Drug level in mouse liver microsomes treated with N205 at 5 uM after 60 mins by UPLC-MS analysis. It is filed as ADME, microsome. To be noted: 1 h. (Liver microsomes are a subcellular fraction often used to study metabolism.)
Data set [17] in a line: Drug level in human liver microsomes treated with N205 at 5 uM after 60 mins by UPLC-MS analysis. It is filed as ADME, microsome. To be noted: 1 h.
Data set [18] can be described thus: Retention time of the compound. It is filed as physicochemical.
Data set [19] can be described thus: Metabolic stability in rat blood after 2 to 4 hrs by LC-MS method. It is filed as ADME, tissue-based.
Data set [20] can be described thus: Metabolic stability in human blood after 2 to 4 hrs by LC-MS method. It is filed as ADME, tissue-based.
Data set [21] relates to Plasmodium falciparum. Kind of data set: Antimalarial activity against Plasmodium falciparum Pf3D70087/N9 infected in po dosed humanized NOD.Cg-Prkdcscid Il2rgtm1Wjl/SzJ mouse assessed as compound concentration in whole blood require to reduce parasitemia in peripheral blood by 90% administered as single dose measured on day 7 post infection by SYTO-16 dye-based flow cytometric analysis. It is filed as functional, organism-based.

In data set [22] the test system is Plasmodium falciparum. Kind of data set: Antimalarial activity against Plasmodium falciparum Pf3D70087/N9 infected in humanized NOD.Cg-Prkdcscid Il2rgtm1Wjl/SzJ mouse assessed as reduction in parasitemia administered 4 daily doses by SYTO-16 dye-based flow cytometric analysis. It is filed as functional.
A short description of data set [23]: Protein binding in human liver microsomes at 1 uM by ultracentrifugation method. It is filed as ADME, microsome. To be noted: read-out: PB.
Data set [24] in a line: Half life in iv dosed Sprague-Dawley rat plasma administered as 10 mins infusion by LC/MS analysis. It is filed as ADME, organism-based.
Data set [25] can be described thus: Half life in rat blood after 4 hrs by LC-MS method. It is filed as ADME, tissue-based.
The nature of data set [26]: Protein binding in human plasma at 2000 ng/ml after 6 hrs by equilibrium dialysis method. It is filed as ADME, cell-free. To be noted: read-out: PB.
Data set [27] in a line: Solubility in PH 7.4 PBS buffer after 4 hrs by HPLC analysis. It is filed as physicochemical.
A short description of data set [28]: Clearance in Sprague-Dawley rat plasma at 100 mg/kg, po administered via gavage or administered as 10 mins infusion iv by LC/MS analysis. It is filed as ADME, organism-based.
Data set [29] in a line: Drug degradation in human blood after 4 hrs by LC-MS method. It is filed as ADME, tissue-based. To be noted: read-out: Drug degradation.

Usually bioavailability stands for the share of a dose that reaches the circulation, judged against a reference dose that is usually intravenous. A word on the solubility: it is how much of the substance goes into solution per volume. In general, IC50 refers to the midpoint of a concentration-inhibition curve. In general, half-life refers to the time in which the quantity being followed falls by half.

A value given as a limit tells only on which side of the number the result lay.

Compound `CS(=O)(=O)O.c1cc(C2CCC3(CC2)OOC2(O3)C3CC4CC(C3)CC2C4)ccc1OCCN1CCOCC1` (centres undefined) had a bioavailability in data set [1] of 100%. Besides, the Vd in [2] is 18 L/kg. The solubility at 4 h in [3] was 34 µg/mL; in data set [4] it was 6800 µg/mL; in [5], 120 µg/mL; in [6] (FeSSIF, pH 5), greater than 1500 µg/mL; in [7], greater than 8000 µg/mL; in data set [8], 240 µg/mL.

Turning to `NC1CN(C(=O)c2ccc(C3CCC4(CC3)OOC3(OO4)C4CC5CC(C4)CC3C5)cc2)C1` (centres undefined), the IC50 in the data set on Plasmodium falciparum [9] amounted to 33 nM. The compound further returned a half-life in [10] of less than 240 min.

As for `CN1CCN(C(=O)c2ccc(C3CCC4(CC3)OOC3(OO4)C4CC5CC(C4)CC3C5)cc2)CC1` (centres undefined), in the data set with Plasmodium falciparum [9], half-maximal inhibition (IC50) was put at 6.4 nM. Also, the half-life in [10] was less than 240 min.

`O=C(c1ccc(C2CCC3(CC2)OOC2(OO3)C3CC4CC(C3)CC2C4)cc1)N1CCOCC1` (centres undefined) displayed an IC50 in the data set with Plasmodium falciparum [9] of 7.1 nM. Besides, in data set [10], the half-life was less than 240 min.

As for `c1cc(C2CCC3(CC2)OOC2(O3)C3CC4CC(C3)CC2C4)ccc1OCCN1CCOCC1` (centres undefined) [listing 1 of 2 here], the MSD with Plasmodium berghei [11] was 30 days. In the data set on Plasmodium falciparum [9], this compound showed an IC50 of 8 nM. Besides, in the data set on Plasmodium berghei [12], the Activity was found to be 99.4%. Also, in the data set on Plasmodium falciparum [13], the ED90 was determined as 6.2 mg/kg.

Consider `CN1CCN(C2CCN(C(=O)CC3CCC4(CC3)OOC3(OO4)C4CC5CC(C4)CC3C5)CC2)CC1` (centres undefined), for which the MSD with Plasmodium berghei [11] worked out at 11.4 days. The compound further gave a half-life in data set [14] of 210 min. Further, the Activity in the data set with Plasmodium berghei [12] came out at 99.98%.

Regarding `NCCNC(=O)c1ccc(C2CCC3(CC2)OOC2(OO3)C3CC4CC(C3)CC2C4)cc1` (centres undefined), inhibition in the data set with Plasmodium falciparum [9] was half-maximal at 1.1 nM (IC50). In addition, the half-life in data set [10] was less than 240 min.

With `O=C1CCC(c2ccc(CN3CCOCC3)cc2)CC1`, the Drug metabolism entry in [15], in data set [16] and in [17] was “Metabolite_Detected” throughout. This compound also gave a Retention_time in data set [18] of 0.84 min.

With `O=C(NCC1CCNCC1)c1ccc(C2CCC3(CC2)OOC2(OO3)C3CC4CC(C3)CC2C4)cc1` (centres undefined), in the data set on Plasmodium falciparum [9], 5.3 nM corresponded to half-maximal inhibition (IC50). In data set [10], this compound returned a half-life of less than 240 min.

In the data set on Plasmodium falciparum [9], `FC1CCN(Cc2ccc(C3CCC4(CC3)OOC3(OO4)C4CC5CC(C4)CC3C5)cc2)CC1` (centres undefined) gave an IC50 of 1.8 nM. Moreover, the Stability result in data set [19] and in [20] was “Stable” each time.

For `O=C(c1ccc(C2CCC3(CC2)OOC2(OO3)C3CC4CC(C3)CC2C4)cc1)N1CCSCC1` (centres undefined), in the data set with Plasmodium falciparum [9], the midpoint of inhibition, the IC50, lay at 15 nM. Besides, the half-life in data set [10] is less than 240 min.

Regarding `NC1CCN(C(=O)c2ccc(C3CCC4(CC3)OOC3(OO4)C4CC5CC(C4)CC3C5)cc2)CC1` (centres undefined), the MSD in the data set on Plasmodium berghei [11] came out at 8 days. Moreover, the 50% inhibitory concentration (IC50) in the data set with Plasmodium falciparum [9] is 4.2 nM. In data set [10], this compound showed a half-life of less than 240 min. Moreover, the Activity with Plasmodium berghei [12] was 99%.

For `CNCCNC(=O)c1ccc(C2CCC3(CC2)OOC2(OO3)C3CC4CC(C3)CC2C4)cc1` (centres undefined), the half-inhibitory concentration (IC50) with Plasmodium falciparum [9] stood at 0.84 nM. In [10], this compound yielded a half-life of less than 240 min.

Take `CC(C)(N)CNC(=O)CC1CCC2(CC1)OOC1(O2)C2CC3CC(C2)CC1C3` (centres undefined): in the data set on Plasmodium berghei [11], the MSD came out at 10.2 days. Further, in the data set on Plasmodium berghei [12], the Activity is on record as 99.98%.

On to `O=C(c1ccc(C2CCC3(CC2)OOC2(OO3)C3CC4CC(C3)CC2C4)cc1)N1CCNCC1` (centres undefined), for which the MSD in the data set with Plasmodium berghei [11] was 10 days. Further, in the data set with Plasmodium falciparum [9], the IC50 was found to be 3 nM. This compound also displayed a half-life in data set [10] of less than 240 min. Besides, the Activity with Plasmodium berghei [12] was found to be 99%.

For the compound `OC1CCC(c2ccc(CN3CCOCC3)cc2)CC1` (centres undefined), the Drug metabolism result in data set [15], in data set [16] and in data set [17] was “Metabolite_Detected” each time. For the same compound, the Retention_time in [18] was 0.86 min.

On to `c1cc(C2CCC3(CC2)OOC2(O3)C3CC4CC(C3)CC2C4)ccc1OCCN1CCOCC1` (centres undefined) [listing 2 of 2 here], for which the AUCED90 in the data set on Plasmodium falciparum [21] worked out at 0.68 µg·h/mL.

Turning to `OCCNCc1ccc(C2CCC3(CC2)OOC2(OO3)C3CC4CC(C3)CC2C4)cc1` (centres undefined), the Drug metabolism entry in data set [15], in [16] and in [17] was “Metabolite_Detected” throughout. The same compound had a Retention_time in [18] of 3.54 min.

As to `c1cc(C2CCC3(CC2)OOC2(OO3)C3CC4CC(C3)CC2C4)ccc1CN1CCOCC1` (centres undefined), the AUCED90 in the data set on Plasmodium falciparum [21] is less than 0.75 µg·h/mL.

As for `CS(=O)(=O)O.FC1CCN(Cc2ccc(C3CCC4(CC3)OOC3(OO4)C4CC5CC(C4)CC3C5)cc2)CC1` (centres undefined), in the data set with Plasmodium berghei [11], the MSD stood at 13 days. In addition, the Activity with Plasmodium berghei [12] was determined as 99.98%.

Turning to `O=C(c1ccc(C2CCC3(CC2)OOC2(OO3)C3CC4CC(C3)CC2C4)cc1)N1CCCNCC1` (centres undefined), the IC50 with Plasmodium falciparum [9] was found to be 0.82 nM. The half-life in [10] is less than 240 min.

On to `C[C@H]1[C@H](OC(=O)CCC(=O)O)O[C@@H]2O[C@@]3(C)CC[C@H]4[C@H](C)CC[C@@H]1[C@@]24OO3` [ARTESUNATE], for which the MSD with Plasmodium berghei [11] came to 6.8 days. Further, the ED90 in the data set with Plasmodium falciparum [22] came to 10 mg/kg. For the same compound, the Activity in the data set on Plasmodium berghei [12] came out at 99.09%.

On to `CS(=O)(=O)O.c1cc(C2CCC3(CC2)OOC2(OO3)C3CC4CC(C3)CC2C4)ccc1CN1CCOCC1` (centres undefined), for which the fraction unbound at 1 µM in [23] is less than 0.001. Also, the Vd in data set [2] is 11 L/kg. Besides, the solubility at 4 h is 17 µg/mL in data set [3]; greater than 9000 µg/mL in data set [4]; 18 µg/mL in [5]; greater than 9000 µg/mL in data set [7]; less than 0.1 µg/mL in data set [27]; 172 µg/mL in data set [8]. The figures for the half-life in data set [24] and in data set [25] were 381 min and 480 min, respectively. Besides, the MSD with Plasmodium berghei [11] was 25 days. Besides, in data set [26], the fraction unbound at 6 h, 2000 ng/ml is less than 0.001. Also, the solubility in data set [6] (simulated gi fluid, pH 5, 4 h) is 760 µg/mL. The Activity in the data set on Plasmodium berghei [12] was determined as 99.3%. For the same compound, the clearance in data set [28] came to 77 mL/min/kg. Moreover, the metabolised at 4 h in data set [29] was 10%.
